This is an account of results in US12527814B2, “Treatment of an ocular infection, composition and methods thereof” (priority 2019, dated 2026).

One data set relates to Tsukamurella. The settings on record: literature refs 3, 12; cited from earlier work.
The subject of data set [1] is T. pulmonis-PW1004. Nature of the data set: Treatment of experimental Tsukamurella keratitis in rabbits. On the procedure:
6.4.4 Development of a rabbit model for Tsukamurella keratitis. Bacterial suspensions used to infect rabbits were prepared by culturing T. pulmonis-PW1004 in BHI for 48 h. Eight male NZW rabbits, 1.5-2.0 kg, were inoculated intrastromally as described previously^37. Corneas of 4 rabbits were injected with approximately 10 μl (i.e., 10^6 CFU) of T. pulmonis-PW1004 using a microliter syringe with a 30 G needle. Another 4 rabbit corneas were challenged with plain culture medium as the control. Rabbits were monitored daily for signs of disease. At 24 h PI, rabbit eyes were photographed, evaluated for pathology, and sacrificed. After euthanasia, the corneas of each rabbit were surgically removed for histopathological and immunohistochemical analyses and bacterial enumeration.
6.4.5 Treatment of experimental Tsukamurella keratitis. Efficacy of the two antibiotics, topical 0.5% Cravit® levofloxacin (Santen Pharmaceutical Company, Japan) and 0.02% PHMB (Lonza, Switzerland), for the treatment of Tsukamurella keratitis were evaluated, respectively. Tsukamurella keratitis was first established in 12 NZW rabbits (n=4 per group) using procedures as described above. Infection was allowed to proceed for 24 h before initiation of antibiotic therapy. These 12 NZW rabbits were divided into 3 topical treatment groups: (1) 0.5% levofloxacin, (2) 0.02% PHMB, and (3) saline. Treatment regimens of levofloxacin and PHMB were performed according to Fiscella et al. and Kowalski et al., respectively, with slight modifications^16,17. For the first group of rabbits treated with levofloxacin (n=4), drops (50 μl) of levofloxacin were applied to the affected eyes hourly for 10 doses over 3 days. For the second group of rabbits treated with PHMB (n=4), drops (50 μl) of PHMB were applied to the affected eyes hourly for 8 doses over 3 days. Rabbits in the third control group (n=4) received the same regimen of sterile saline (0.85% NaCl) hourly for 10 doses over 3 days. In addition to these 3 treatment groups, two extra NZW rabbits without infection were used as controls (i.e., mock-infected and mock-treated rabbits), receiving the same regimen of saline for 3 days. One hour after the final instillation of the antibiotics and saline drops, rabbit eyes were photographed, evaluated for pathology, and sacrificed. The treatment efficacy was compared and evaluated by the quantitative culture and histopathological analysis of the infected corneas.
6.4.6 Quantification of Tsukamurella cells. To quantify the number of viable Tsukamurella in the cornea, the cornea harvested from each rabbit was cut into smaller pieces using a sterile scalpel. The corneal pieces were placed into a sterile tube containing 500 μl of PBS (pH 7.2). Each tissue was homogenized, and homogenates were serially diluted 10-fold in PBS (pH 7.2). One hundred microliters of each diluted sample was plated in triplicate on the BHI agar and incubated at 37° C. under aerobic conditions for 48 h. The number of bacteria was determined and expressed as CFU/cornea.
To examine the histopathology of corneal tissues of rabbits challenged with the PW1004-WT and its derivative mutants, excised infected eyes, including the cornea of challenged rabbits, were subjected to histopathological examination. Corneal tissues harvested from the rabbits were fixed in 10% neutral-buffered formalin, embedded in paraffin, and stained with hematoxylin and eosin (H&E) according to Fischer et al.^39.

In data set [2] the test system is T. pulmonis-PW1004. The settings on record: for Zone of inhibition: 6 mm disk, 48 h, 37° C. An excerpt:
Disk diffusion assay was initially used to determine the susceptibility of T. pulmonis-PW1004 against various concentrations of PHMB. Briefly, standard paper disks, 6 mm in diameter, impregnated with different dilutions of PHMB (0.0005%, 0.001%, 0.0025%, 0.005%) were placed onto BHI agar plates inoculated with overnight culture of a 0.5 McFarland standard prepared from T. pulmonis-PW1004, following standard procedures^15. Paper disks soaked in 0.85% NaCl were used as the control. Zones of inhibition were measured after 48 h of incubation at 37° C. under aerobic conditions. […] Next, we re-examined the susceptibility of the 4 contact lens solutions against the 7 Tsukamurella species by adjusting the final concentration of PHMB to 0.0025%, following the procedures as described in the previous paragraph.

Data set [3] deals with T. pulmonis-PW1004. How it is done:
(§1) 6.4.9 In vitro susceptibility of planktonic cultures of Tsukamurella against contact lens and PHMB solutions. A susceptibility test was performed following the procedures as described in FDA/ISO14729 stand-alone procedure for disinfecting products^13. Briefly, 0.1 ml of 1×10^8 CFUs/ml bacterial suspension from 7 different Tsukamurella species was added into 10 ml each of the 4 commercial contact lens solutions, respectively, and the mixture was incubated at room temperature according to the manufacturer's recommended disinfection time (Table 1). After incubation, a 1-ml aliquot was withdrawn from each mixture and added to 9 ml of Dey-Engley neutralizing broth (Sigma, USA) for 15 min at room temperature for neutralization of the preservative. The mixture was then serially diluted, and 100 μl of each diluted sample was plated in triplicate on the BHI agar for sampling of viable bacteria. P. aeruginosa ATCC27853 was used as a control. The mean logarithmic reduction was calculated. According to the guideline, only a contact lens solution capable of reducing the viability of starting concentration of bacteria by 3-log is defined as satisfactory. All experiments were performed in triplicate and repeated 3 times along with the control strain.

The next data set relates to T. tyrosinosolvens-PW899. On the procedure: as §1
[4] abbreviates: PHMB 0.005% compared with 0.0025%.
Setting [5] is: 0.02% PHMB topical for 3 days, compared to saline control rabbits.

Read-outs that look alike come from different tables or passages of the source. A value given as a limit tells only on which side of the number the result lay.

Take `O=C(N[C@H](CO)[C@H](O)c1ccc([N+](=O)[O-])cc1)C(Cl)Cl` [chloramphenicol]: the “susceptibility of Tsukamurella to topical antibiotic eye drops” value with Tsukamurella was “generally resistant”.

On to `C[C@H]1COc2c(N3CCN(C)CC3)c(F)cc3c(=O)c(C(=O)O)cn1c23` [levofloxacin], for which the “corneal perforation and adverse signs” value with T. pulmonis-PW1004 [1] (rabbit, in vivo) is “corneal perforations with severe discharges accompanied by behavioral abnormalities”.

Regarding polyhexamethylene biguanide [PHMB], the Zone of inhibition in the data set with T. pulmonis-PW1004 [2] (PHMB concentration 0.0005%) was found to be 0 mm; in the data set on T. pulmonis-PW1004 [2] (PHMB concentration 0.001%), 0 mm; in the data set on T. pulmonis-PW1004 [2] (PHMB concentration 0.0025%) it was 13 mm; with T. pulmonis-PW1004 [2] (PHMB concentration 0.005%), 14 mm. In addition, the “minimal concentration that achieved good efficacy” value with T. pulmonis-PW1004 [2] (disk diffusion, preliminary results) is 0.0025%. Besides, the log reduction was less than 3 log in the data set on T. pulmonis-PW1004 [3] (PHMB 0.0005%); less than 3 log in the data set on T. pulmonis-PW1004 [3] (PHMB 0.001%); 3 log in the data set on T. pulmonis-PW1004 [3] (PHMB 0.0025%); less than 3 log in the data set with T. tyrosinosolvens-PW899 (PHMB 0.0005%); less than 3 log in the data set with T. tyrosinosolvens-PW899 (PHMB 0.001%); 3 log with T. tyrosinosolvens-PW899 (PHMB 0.0025%). Further, the “further reduction of bacterial numbers” value in the data set with T. pulmonis-PW1004 [3] (setting [4]) and in the data set on T. tyrosinosolvens-PW899 (setting [4]) was “could not be further reduced” in each case. Further, the “PMN infiltration in corneal stroma and epithelium” value in the data set with T. pulmonis-PW1004 [1] (setting [5]) was “less evident”. The “histological examination: stromal edema and capillary formation” value in the data set on T. pulmonis-PW1004 [1] (setting [5]) is recorded as “lower degree of stromal edema as well as capillary formation”. In addition, the “keratitis symptoms, gross appearance” value in the data set with T. pulmonis-PW1004 [1] (setting [5]) was “keratitis symptoms became less severe”. Moreover, the “number of bacteria recovered from the cornea” value in the data set with T. pulmonis-PW1004 [1] (0.02% PHMB topical, hourly 8 doses over 3 days, started 24 h PI, P<0.01 vs saline) was 1.05±0.07 log. Also, the corneal perforation result with T. pulmonis-PW1004 [1] (0.02% PHMB topical, whole course of treatment) was “did not observe corneal perforation”. The “toxicity in rabbit corneal tissues” value in the data set on T. pulmonis-PW1004 [1] (PHMB 0.02% topical) is “no toxicity”.
